Converted amounts (≈) assume the structure as drawn.
Experiments:
Assay type in all cases: cell-based
Proteus vulgaris OX-19 = test: Antibacterial activity, agar-dilution MIC, organism No. 20; settings: Proteus vulgaris, OX19; Organism No. 20, bouillon-agar; read-out: Minimum Inhibitory Concentration
Procedure, shortened: (§1)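 Specimen is incorporated into bouillon-agar medium at graded levels and the organisms are tested on these plates. The lowest level preventing growth is taken as the MIC (μg/ml of medium).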

[1] = system: Streptococcus faecium IFO 3826; test: Antibacterial activity, agar-dilution MIC, organism No. 27; settings: Enterococcus faecium, IFO3826; Organism No. 27, bouillon-agar; read-out: Minimum Inhibitory Concentration
Procedure, shortened: as §1

[2] = system: Salmonella enteritidis G 14; test: Antibacterial activity, agar-dilution MIC, organism No. 12; settings: Salmonella enterica, ENTERITIDIS; Organism No. 12, bouillon-agar; read-out: Minimum Inhibitory Concentration
Procedure, shortened: as §1

[3] = system: Salmonella shottmuelleri 8006; test: Antibacterial activity, agar-dilution MIC, organism No. 11; settings: Salmonella, 8006; Organism No. 11, bouillon-agar; read-out: Minimum Inhibitory Concentration
Procedure, shortened: as §1

[4] = system: Pseudomonas aeruginosa PAO 1; test: Antibacterial activity, agar-dilution MIC, organism No. 17; settings: Pseudomonas aeruginosa, PAO1; Organism No. 17, bouillon-agar; read-out: Minimum Inhibitory Concentration
Procedure, shortened: as §1

[5] = system: Escherichia coli NIHJ-JC-2; test: Antibacterial activity, agar-dilution MIC, organism No. 5; settings: Escherichia coli, NIHJJC2; Organism No. 5, bouillon-agar; read-out: Minimum Inhibitory Concentration
Procedure, shortened: as §1

[6] = system: Staphylococcus aureus FDA 209PJc-1; test: Antibacterial activity, agar-dilution MIC, organism No. 1; settings: Staphylococcus aureus, FDA209PJC1; Organism No. 1, bouillon-agar; read-out: Minimum Inhibitory Concentration
Procedure, shortened: as §1

[7] = system: Salmonella paratyphi-A 1015; test: Antibacterial activity, agar-dilution MIC, organism No. 10; settings: Salmonella enterica, PARATYPHI, read-out: Minimum Inhibitory Concentration
Procedure, shortened: as §1

[8] = system: Proteus mirabilis IFO 3849; test: Antibacterial activity, agar-dilution MIC, organism No. 19; settings: Proteus mirabilis, IFO3849; Organism No. 19, bouillon-agar; read-out: Minimum Inhibitory Concentration
Procedure, shortened: as §1

[9] = system: Klebsiella pneumoniae PCI-602; test: Antibacterial activity, agar-dilution MIC, organism No. 7; settings: Klebsiella pneumoniae, PCI602; Organism No. 7, bouillon-agar; read-out: Minimum Inhibitory Concentration
Procedure, shortened: as §1

[10] = system: Staphylococcus aureus MS 353; test: Antibacterial activity, agar-dilution MIC, organism No. 3; settings: Staphylococcus aureus, MS353; Organism No. 3, bouillon-agar; read-out: Minimum Inhibitory Concentration
Procedure, shortened: as §1

[11] = system: Micrococcus luteus ATCC 9341; test: Antibacterial activity, agar-dilution MIC, organism No. 25; settings: Micrococcus luteus, ATCC9341; Organism No. 25, bouillon-agar; read-out: Minimum Inhibitory Concentration
Procedure, shortened: as §1

Enterobacter cloacae 963 = test: Antibacterial activity, agar-dilution MIC, organism No. 24; settings: Enterobacter cloacae, 963; Organism No. 24, bouillon-agar; read-out: Minimum Inhibitory Concentration
Procedure, shortened: as §1

[12] = system: Streptococcus pyogenes Cook; test: Antibacterial activity, agar-dilution MIC, organism No. 4; settings: Streptococcus pyogenes; Organism No. 4, bouillon-agar; read-out: Minimum Inhibitory Concentration
Procedure, shortened: as §1

[13] = system: Pseudomonas aeruginosa IFO 3445; test: Antibacterial activity, agar-dilution MIC, organism No. 15; settings: Pseudomonas aeruginosa, IFO3445; Organism No. 15, bouillon-agar; read-out: Minimum Inhibitory Concentration
Procedure, shortened: as §1

[14] = system: Staphylococcus aureus Terajima; test: Antibacterial activity, agar-dilution MIC, organism No. 2; settings: Staphylococcus aureus; Organism No. 2, bouillon-agar; read-out: Minimum Inhibitory Concentration
Procedure, shortened: as §1

[15] = system: Bacillus subtilis ATCC 6633; test: Antibacterial activity, agar-dilution MIC, organism No. 14; settings: Bacillus subtilis, ATCC6633; Organism No. 14, bouillon-agar; read-out: Minimum Inhibitory Concentration
Procedure, shortened: as §1

[16] = system: Proteus morganii IFO 3848; test: Antibacterial activity, agar-dilution MIC, organism No. 18; settings: Morganella morganii, IFO3848; Organism No. 18, bouillon-agar; read-out: Minimum Inhibitory Concentration
Procedure, shortened: as §1

[17] = system: Candida albicans IAM 4905; test: Antifungal activity, agar-dilution MIC, organism No. 29; settings: Candida albicans, IAM4905; Organism No. 29, bouillon-agar; read-out: Minimum Inhibitory Concentration
Procedure, shortened: as §1

[18] = system: Salmonella typhimurium IID 971; test: Antibacterial activity, agar-dilution MIC, organism No. 8; settings: Salmonella enterica; Organism No. 8, bouillon-agar; read-out: Minimum Inhibitory Concentration
Procedure, shortened: as §1

[19] = system: Pseudomonas aeruginosa NCTC 10490; test: Antibacterial activity, agar-dilution MIC, organism No. 16; settings: Pseudomonas aeruginosa, NCTC10490; Organism No. 16, bouillon-agar; read-out: Minimum Inhibitory Concentration
Procedure, shortened: as §1

Proteus vulgaris HX-19 = test: Antibacterial activity, agar-dilution MIC, organism No. 21; settings: Proteus vulgaris, HX19; Organism No. 21, bouillon-agar; read-out: Minimum Inhibitory Concentration
Procedure, shortened: as §1

[20] = system: Escherichia coli K12 C600 IAM 1264; test: Antibacterial activity, agar-dilution MIC, organism No. 6; settings: Escherichia coli, IAM1264; Organism No. 6, bouillon-agar; read-out: Minimum Inhibitory Concentration
Procedure, shortened: as §1

[21] = system: Aspergillus niger IFO 6342; test: Antifungal activity, agar-dilution MIC, organism No. 30; settings: Aspergillus niger, IFO6342; Organism No. 30, bouillon-agar; read-out: Minimum Inhibitory Concentration
Procedure, shortened: as §1

[22] = system: Mycoplasma pneumoniae IID817; test: Antimycoplasmal activity, MIC by phenol red colour change, organism No. 28; settings: Mycoplasma, IID817; Organism No. 28, PPLO broth + 1% glucose, 37° C.; read-out: Minimum Inhibitory Concentration (MIC)
Protocol: Mycoplasma pneumoniae IID817 was used as the test microorganism in a culture medium prepared by adding 1% of glucose to "PPLO broth (manufactured by Difco Co.) liquid culture medium" at 37° C. with phenol red as an indicator, thereby culturing the test microorganism.

Salmonella typhi 901 = test: Antibacterial activity, agar-dilution MIC, organism No. 9; settings: Salmonella enterica, TYPHI, read-out: Minimum Inhibitory Concentration
Procedure, shortened: as §1

[23] = system: Streptococcus pyogenes IFO 3340; test: Antibacterial activity, agar-dilution MIC, organism No. 26; settings: Streptococcus pyogenes, IFO3340; Organism No. 26, bouillon-agar; read-out: Minimum Inhibitory Concentration
Procedure, shortened: as §1

[24] = system: Enterobacter aerogenes ATCC 13048; test: Antibacterial activity, agar-dilution MIC, organism No. 23; settings: Klebsiella aerogenes, ATCC13048; Organism No. 23, bouillon-agar; read-out: Minimum Inhibitory Concentration
Procedure, shortened: as §1

[25] = system: Serratia marcescens IAM 1184; test: Antibacterial activity, agar-dilution MIC, organism No. 13; settings: Serratia marcescens, IAM1184; Organism No. 13, bouillon-agar; read-out: Minimum Inhibitory Concentration
Procedure, shortened: as §1

[26] = system: Proteus rettgeri IFO 3850; test: Antibacterial activity, agar-dilution MIC, organism No. 22; settings: Providencia rettgeri, IFO3850; Organism No. 22, bouillon-agar; read-out: Minimum Inhibitory Concentration
Procedure, shortened: as §1

Structure (SMILES)	MIC (Proteus vulgaris OX-19) [µg/mL]	MIC [1] [µg/mL]	MIC [2] [µg/mL]	MIC [3] [µg/mL]	MIC [4] [µg/mL]	MIC [5] [µg/mL]	MIC [6] [µg/mL]	MIC [7] [µg/mL]	MIC [8] [µg/mL]	MIC [9] [µg/mL]	MIC [10] [µg/mL]	MIC [11] [µg/mL]	MIC (Enterobacter cloacae 963) [µg/mL]	MIC [12] [µg/mL]	MIC [13] [µg/mL]	MIC [14] [µg/mL]	MIC [15] [µg/mL]	MIC [16] [µg/mL]	MIC [17] [µg/mL]	MIC [18] [µg/mL]	also measured
[C-]#[N+]C12CC3(/C=C/C(=O)Nc4ccc(C(C)=O)cc4)OC3C1O2 (stereo not drawn) [compound 80]	1.56 (≈ 5.03 µM)	1.56 (≈ 5.03 µM)	12.5 (≈ 40.3 µM)	3.13 (≈ 10.1 µM)	> 200	> 200	0.39 (≈ 1.26 µM)	3.13 (≈ 10.1 µM)	> 200	1.56 (≈ 5.03 µM)	0.78 (≈ 2.51 µM)	> 200	> 200	6.25 (≈ 20.1 µM)	> 200	1.56 (≈ 5.03 µM)	6.25 (≈ 20.1 µM)	6.25 (≈ 20.1 µM)	0.39 (≈ 1.26 µM)	100 (≈ 322 µM)	MIC [19]: > 200 µg/mL; MIC (Proteus vulgaris HX-19): 1.56 µg/mL (≈ 5.03 µM); MIC [20]: > 200 µg/mL; MIC [21]: 3.13 µg/mL (≈ 10.1 µM); MIC [22]: < 0.2 µg/mL; MIC (Salmonella typhi 901): 12.5 µg/mL (≈ 40.3 µM); MIC [23]: 3.13 µg/mL (≈ 10.1 µM); MIC [24]: > 200 µg/mL; MIC [25]: > 200 µg/mL; MIC [26]: > 200 µg/mL
[C-]#[N+]C12CC3(/C=C/C(=O)Nc4cccc(N)c4)OC3C1O2 (stereo not drawn) [compound 60]	0.39 (≈ 1.38 µM)	50 (≈ 176 µM)	6.25 (≈ 22.1 µM)	3.13 (≈ 11 µM)	> 200	25 (≈ 88.2 µM)	3.13 (≈ 11 µM)	3.13 (≈ 11 µM)	> 200	1.56 (≈ 5.51 µM)	3.13 (≈ 11 µM)	0.39 (≈ 1.38 µM)	200 (≈ 706 µM)	25 (≈ 88.2 µM)	> 200	12.5 (≈ 44.1 µM)	12.5 (≈ 44.1 µM)	1.56 (≈ 5.51 µM)	25 (≈ 88.2 µM)	12.5 (≈ 44.1 µM)	MIC [19]: > 200 µg/mL; MIC (Proteus vulgaris HX-19): 0.39 µg/mL (≈ 1.38 µM); MIC [20]: 25 µg/mL (≈ 88.2 µM); MIC [21]: 100 µg/mL (≈ 353 µM); MIC [22]: < 0.2 µg/mL; MIC (Salmonella typhi 901): 3.13 µg/mL (≈ 11 µM); MIC [23]: 3.13 µg/mL (≈ 11 µM); MIC [24]: > 200 µg/mL; MIC [25]: 200 µg/mL (≈ 706 µM); MIC [26]: > 200 µg/mL
[C-]#[N+]C12CC3(/C=C/C(=O)Nc4ccc(C(=O)OC)cc4)OC3C1O2 (stereo not drawn) [compound 49]	< 0.05	25 (≈ 76.6 µM)	0.39 (≈ 1.2 µM)	< 0.05	> 200	50 (≈ 153 µM)	< 0.05	< 0.05	> 200	< 0.05	< 0.05	< 0.05	25 (≈ 76.6 µM)	12.5 (≈ 38.3 µM)	> 200	< 0.05	0.78 (≈ 2.39 µM)	12.5 (≈ 38.3 µM)	1.56 (≈ 4.78 µM)	0.39 (≈ 1.2 µM)	MIC [19]: > 200 µg/mL; MIC (Proteus vulgaris HX-19): < 0.05 µg/mL; MIC [20]: 50 µg/mL (≈ 153 µM); MIC [21]: 3.13 µg/mL (≈ 9.59 µM); MIC [22]: < 0.2 µg/mL; MIC (Salmonella typhi 901): 0.1 µg/mL (≈ 0.306 µM); MIC [23]: < 0.05 µg/mL; MIC [24]: > 200 µg/mL; MIC [25]: 12.5 µg/mL (≈ 38.3 µM); MIC [26]: < 0.05 µg/mL
[C-]#[N+]C12CC3(/C=C/C(=O)OCc4c(C)cc(C)cc4C)OC3C1O2 (stereo not drawn) [compound 11]	6.25 (≈ 19.2 µM)	6.25 (≈ 19.2 µM)	12.5 (≈ 38.4 µM)	12.5 (≈ 38.4 µM)	> 100	25 (≈ 76.8 µM)	3.13 (≈ 9.62 µM)	12.5 (≈ 38.4 µM)	12.5 (≈ 38.4 µM)	6.25 (≈ 19.2 µM)	3.13 (≈ 9.62 µM)	< 0.1	> 100	3.13 (≈ 9.62 µM)	> 100	6.25 (≈ 19.2 µM)	0.78 (≈ 2.4 µM)	3.13 (≈ 9.62 µM)	1.56 (≈ 4.79 µM)	12.5 (≈ 38.4 µM)	MIC [19]: > 100 µg/mL; MIC (Proteus vulgaris HX-19): 3.13 µg/mL (≈ 9.62 µM); MIC [20]: 25 µg/mL (≈ 76.8 µM); MIC [21]: 6.25 µg/mL (≈ 19.2 µM); MIC [22]: < 0.2 µg/mL; MIC (Salmonella typhi 901): 6.25 µg/mL (≈ 19.2 µM); MIC [23]: 3.13 µg/mL (≈ 9.62 µM); MIC [24]: > 100 µg/mL; MIC [25]: 12.5 µg/mL (≈ 38.4 µM); MIC [26]: 12.5 µg/mL (≈ 38.4 µM)
